# Measurements published in article PMC4239038, “The Potent Cdc7-Dbf4 (DDK) Kinase Inhibitor XL413 Has Limited Activity in Many Cancer Cell Lines and Discovery of Potential New DDK Inhibitor Scaffolds” (PLoS ONE, 2014).
# Tests used:
# DDK = settings: read-out: DDK IC50 (in vitro); cited from earlier work
# purified DDK = molecular target: T1, purified DDK (Homo sapiens, UniProt O00311); test: DDK thermal stability shift assay (TSA); type: binding; settings: library screen, 20 µM compound
# T1 construct: His6-Smt3 (SUMO) (N, cleaved yes); made in house; host or cells: E. coli BL21-RIPL (pKT37, pETDuet-1 vector)
# T1 sequence (O00311 whole entry): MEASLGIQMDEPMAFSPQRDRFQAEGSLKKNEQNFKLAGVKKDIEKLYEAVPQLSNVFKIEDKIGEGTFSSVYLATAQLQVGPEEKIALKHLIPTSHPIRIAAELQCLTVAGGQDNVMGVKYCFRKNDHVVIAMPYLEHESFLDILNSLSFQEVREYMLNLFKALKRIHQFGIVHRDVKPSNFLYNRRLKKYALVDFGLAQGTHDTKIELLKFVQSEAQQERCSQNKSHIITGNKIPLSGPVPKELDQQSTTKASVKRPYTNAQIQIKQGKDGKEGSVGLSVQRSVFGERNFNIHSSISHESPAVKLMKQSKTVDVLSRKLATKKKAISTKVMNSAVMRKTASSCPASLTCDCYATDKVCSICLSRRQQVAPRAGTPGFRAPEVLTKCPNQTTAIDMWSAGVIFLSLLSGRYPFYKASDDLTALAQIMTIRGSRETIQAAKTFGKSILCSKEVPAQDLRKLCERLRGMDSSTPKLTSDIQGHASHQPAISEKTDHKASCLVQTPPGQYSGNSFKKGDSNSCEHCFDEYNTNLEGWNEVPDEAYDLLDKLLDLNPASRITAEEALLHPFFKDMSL
# T1 sequence (Q9UBU7 341-674 partner limits assumed): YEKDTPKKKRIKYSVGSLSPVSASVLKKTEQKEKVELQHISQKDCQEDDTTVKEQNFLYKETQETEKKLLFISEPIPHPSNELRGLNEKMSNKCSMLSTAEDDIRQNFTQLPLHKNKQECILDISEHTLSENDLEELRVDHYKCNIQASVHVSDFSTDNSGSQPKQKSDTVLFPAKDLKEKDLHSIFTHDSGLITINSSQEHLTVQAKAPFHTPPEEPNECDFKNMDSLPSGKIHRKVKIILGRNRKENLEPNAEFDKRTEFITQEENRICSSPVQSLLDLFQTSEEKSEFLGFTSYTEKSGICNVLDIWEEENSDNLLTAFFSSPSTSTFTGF
ΔTm (purified DDK) [°C],Molecule,other results
,"N#Cc1ccc2ccn(-c3cc(N)ncn3)c2n1 [1-(6-aminopyrimidin-4-yl)pyrrolo[2,3-b]pyridine-6-carbonitrile]",IC50 (DDK): 9 nM
0.2,CCCCCCOC(=O)[C@]1(O)C[C@@H]2O[C@@]1(C)n1c3ccccc3c3c4c(c5c6ccccc6n2c5c31)C(=O)NC4 [KT5720],
0,"Cl.Cl.NC(N)=NCCNS(=O)(=O)c1cccc2cnccc12 [HA 1004, Dihydrochloride]",
0,COc1cc2ncc(-c3ccccc3)nc2cc1OC [AG 1296],
,CC[C@H](CO)Nc1nc(NCc2ccccc2O)c2ncn(C(C)C)c2n1 [Olomoucine II],ΔTm at 20 µM (purified DDK): 0.2 °C
0.7,KN-62,
3.5,"O=C1Nc2ccc(I)cc2C1=Cc1cc(Br)c(O)c(Br)c1 [GW 5074, 3-(3,5-Dibromo-4-hydroxy-benzylidene)-5-iodo-1,3-dihydro-indol-2-one]",
1.4,Ro-31-8220,
0.5,Cc1ccc(NC(=O)c2cccc(N(C)C)c2)cc1NC(=O)c1ccc(O)cc1 [ZM 336372],
0.2,Cn1cnc2cc3c(Nc4cccc(Br)c4)ncnc3cc21 [BPIQ-I],
0.3,c1ccc(-c2cnc(Nc3ccc(OCCN4CCCC4)cc3)s2)cc1 [Flt-3 Inhibitor III],
,O=c1cc(N2CCOCC2)oc2c1ccc1ccccc12 [DNA-PK Inhibitor II],ΔTm (purified DDK; 20 µM): 1 °C
,O=c1cc(N2CCOCC2)oc2c(-c3ccccc3)cccc12 [LY 294002],ΔTm at 20 µM (purified DDK): 0.8 °C
0,O=C(Nc1ccncc1)Nc1c(Cl)cc(Cl)cc1Cl [Rho Kinase Inhibitor II],
,CCN(CC)CCCCN1c2ccccc2Oc2ccc(Cl)cc21 [Akt Inhibitor X],ΔTm at 20 µM (purified DDK): 0.3 °C
0.8,CCN(CC)CCCCN1c2ccccc2Oc2ccc(Cl)cc21.Cl [10-DEBC hydrochloride],
51,"Bisindolylmaleimide III, Hydrochloride",
0.3,Nc1ccc2ncnc(NCCc3ccc(Oc4ccccc4)cc3)c2c1 [NF-kB Acjvajon Inhibitor],

ΔTm (purified DDK) [°C],Molecule,other results
,Cn1cnc2c(NCc3ccccc3)nc(NCCO)nc21 [Olomoucine],ΔTm at 20 µM (purified DDK): 0.1 °C
,Cl.Cl.O=S(=O)(NCCNC/C=C/c1ccc(Br)cc1)c1cccc2cnccc12 [H 89 dihydrochloride],ΔTm (purified DDK; 20 µM): 0.3 °C
,Nc1ncnc2n[nH]c(Nc3ccc(F)cc3)c12 [CGP 57380],ΔTm (purified DDK; 20 µM): 0.5 °C
0.2,O=C1NC(=O)C(c2cn(CCCn3ccnc3)c3ccccc23)=C1Nc1ccccc1 [PKCb Inhibitor],
0.3,"Cl.O=S(=O)(c1cccc2c(I)cccc12)N1CCCNCC1 [ML-7, Hydrochloride]",
,O=C1Cc2c([nH]c3ccc([N+](=O)[O-])cc23)-c2ccccc2N1 [Alsterpaullone],ΔTm at 20 µM (purified DDK): 0.5 °C
1.5,CS(=O)(=O)O.Cn1cc(C2=C(c3cn(CCCSC(=N)N)c4ccccc34)C(=O)NC2=O)c2ccccc21 [Ro 31-8220 mesylate],
0.2,CCCOc1ccc(/C=C2/SC(=O)NC2=O)cc1 [PIM1/2 Kinase Inhibitor VI],
2.2,"O=C1N=C(NCc2cccs2)SC1=Cc1ccc2ncccc2c1 [Cdk1 Inhibitor IV, RO-3306, 5-(6-Quinolinylmethylene)-2-[(2-thienylmethyl)amino]-4(5H)-thiazolone]",
0,Wee1/Chk1 Inhibitor,
,CO[C@H]1C[C@@H]2CC[C@@H](C)[C@@](O)(O2)C(=O)C(=O)N2CCCC[C@H]2C(=O)O[C@H]([C@H](C)C[C@@H]2CC[C@@H](O)[C@H](OC)C2)CC(=O)[C@H](C)/C=C(\C)[C@@H](O)[C@@H](OC)C(=O)[C@H](C)C[C@H](C)/C=C/C=C/C=C/1C [Rapamycin],ΔTm at 20 µM (purified DDK): 0 °C
0.3,Cc1nc(N)sc1-c1ccnc(Nc2cccc([N+](=O)[O-])c2)n1 [Cdk2/9 Inhibitor],
,"Nc1nccc(-c2cc3c([nH]2)[C@@H](CCF)CNC3=O)n1 [[(S )-2-(2-aminopyrimidin-4-yl)-7-(2-fluoro-ethyl)-1,5,6,7-tetrahydropyrrolo[3,2-c]pyridin-4-one]",IC50 (DDK): 2 nM
,NC(=O)c1cc(-c2ccnc(N)n2)[nH]c1-c1ccccc1 [5-(2-Amino-pyrimidin-4-yl)-2-phenyl-1H-pyrrole-3-carboxamide],IC50 (DDK): 22 nM
0.8,JAK3 Inhibitor II,
,CN(C)CCCn1cc(C2=C(c3c[nH]c4ccccc34)C(=O)NC2=O)c2ccccc21 [GF 109203X],ΔTm (purified DDK; 20 µM): 0.6 °C
1.9,N#Cc1c(C2CCNCC2)cc(-c2c(O)cccc2OCC2CC2)nc1N [IKK-2 Inhibitor VIII],

Molecule,ΔTm (purified DDK) [°C],other results
COc1cc2ncnc(N3CCN(C(=O)Nc4ccc(Oc5ccccc5)cc4)CC3)c2cc1OC,0,
O=C1NC(=O)c2c1c1c3ccccc3[nH]c1c1[nH]c3ccccc3c21 [Arcyriaflavin A],0.5,
LY 364947,0.6,
VEGF Receptor Tyrosine Kinase Inhibitor II,0.2,
O=C(c1ccc(Nc2nccc(-c3cc4ccccc4s3)n2)cc1)N1CCC(N2CCCC2)CC1 [IKK Inhibitor VII],1.7,
